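Protocol summary: plate cells (96-well), add compound at 5 concentrations, incubate 48 h, interpolate endpoints linearly. The concentration for 50% growth inhibition is given as GI50. At the TGI there is no net growth.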
Key:
Experiment in all cases: growth of human tumour cells (NCI), 48 h
DU-145 prostate = tested on: DU-145 prostate
CCRF-CEM leukemia = tested on: CCRF-CEM leukemia
RPMI-8226 leukemia = tested on: RPMI-8226 leukemia
HCT-15 colon = tested on: HCT-15 colon
NCI-H23 lung = tested on: NCI-H23 lung
SNB-75 CNS = tested on: SNB-75 CNS
MOLT-4 leukemia = tested on: MOLT-4 leukemia
NCI-H522 lung = tested on: NCI-H522 lung
NCI/ADR-RES ovarian = tested on: NCI/ADR-RES ovarian
UO-31 renal = tested on: UO-31 renal
MALME-3M melanoma = tested on: MALME-3M melanoma
EKVX NSCLC = tested on: EKVX NSCLC
PC-3 prostate = tested on: PC-3 prostate
SK-MEL-2 melanoma = tested on: SK-MEL-2 melanoma
UACC-62 melanoma = tested on: UACC-62 melanoma
IGROV1 ovarian = tested on: IGROV1 ovarian
T-47D breast = tested on: T-47D breast
HL-60(TB) leukemia = tested on: HL-60(TB) leukemia
SW-620 colon = tested on: SW-620 colon
ACHN renal = tested on: ACHN renal
OVCAR-5 ovarian = tested on: OVCAR-5 ovarian
BT-549 breast = tested on: BT-549 breast
KM12 colon = tested on: KM12 colon
U251 CNS = tested on: U251 CNS
TK-10 renal = tested on: TK-10 renal
HOP-62 NSCLC = tested on: HOP-62 NSCLC
786-0 renal = tested on: 786-0 renal
SR leukemia = tested on: SR leukemia
SF-539 CNS = tested on: SF-539 CNS
SK-MEL-28 melanoma = tested on: SK-MEL-28 melanoma
OVCAR-8 ovarian = tested on: OVCAR-8 ovarian
SK-OV-3 ovarian = tested on: SK-OV-3 ovarian
A498 renal = tested on: A498 renal
UACC-257 melanoma = tested on: UACC-257 melanoma
NCI-H460 lung = tested on: NCI-H460 lung
HT29 colon = tested on: HT29 colon
NCI-H226 lung = tested on: NCI-H226 lung
SN12C renal = tested on: SN12C renal
SK-MEL-5 melanoma = tested on: SK-MEL-5 melanoma
A549 NSCLC = tested on: A549 NSCLC
HCC-2998 colon = tested on: HCC-2998 colon
MDA-MB-231 breast = tested on: MDA-MB-231 breast
SF-268 CNS = tested on: SF-268 CNS
K-562 leukemia = tested on: K-562 leukemia
HCT-116 colon = tested on: HCT-116 colon
SNB-19 CNS = tested on: SNB-19 CNS
OVCAR-3 ovarian = tested on: OVCAR-3 ovarian
OVCAR-4 ovarian = tested on: OVCAR-4 ovarian
CAKI-1 renal = tested on: CAKI-1 renal
SF-295 CNS = tested on: SF-295 CNS
HS 578T breast = tested on: HS 578T breast
M14 melanoma = tested on: M14 melanoma
RXF 393 renal = tested on: RXF 393 renal
MDA-MB-435 = tested on: MDA-MB-435
MCF7 breast = tested on: MCF7 breast
HOP-92 NSCLC = tested on: HOP-92 NSCLC
LOX IMVI melanoma = tested on: LOX IMVI melanoma

Nc1cc(N)c2nc(-c3ccccc3)c(NCCc3ccc(Cl)c(Cl)c3)nc2c1
GI50 (DU-145 prostate): 1.63 µM | TGI (DU-145 prostate): 3.63 µM | GI50 (CCRF-CEM leukemia): 2.77 µM | TGI (CCRF-CEM leukemia): 12.3 µM | GI50 (RPMI-8226 leukemia): 0.924 µM | TGI (RPMI-8226 leukemia): 2.91 µM | GI50 (HCT-15 colon): 4.64 µM | TGI (HCT-15 colon): 20 µM | GI50 (NCI-H23 lung): 2.81 µM | TGI (NCI-H23 lung): 13.3 µM | GI50 (SNB-75 CNS): 6.18 µM | TGI (SNB-75 CNS): 33.4 µM | GI50 (MOLT-4 leukemia): 1.14 µM | TGI (MOLT-4 leukemia): 9.32 µM | GI50 (NCI-H522 lung): 2.11 µM | TGI (NCI-H522 lung): 4.98 µM | GI50 (NCI/ADR-RES ovarian): 3.62 µM | TGI (NCI/ADR-RES ovarian): 18.8 µM | GI50 (UO-31 renal): 1.93 µM | TGI (UO-31 renal): 3.97 µM | GI50 (MALME-3M melanoma): 1.85 µM | TGI (MALME-3M melanoma): 4.5 µM | GI50 (EKVX NSCLC): 3.16 µM | TGI (EKVX NSCLC): 16.2 µM | GI50 (PC-3 prostate): 1.01 µM | TGI (PC-3 prostate): 4.29 µM | GI50 (SK-MEL-2 melanoma): 10.3 µM | TGI (SK-MEL-2 melanoma): 22.4 µM | GI50 (UACC-62 melanoma): 2.5 µM | TGI (UACC-62 melanoma): 7.97 µM | GI50 (IGROV1 ovarian): 3.38 µM | TGI (IGROV1 ovarian): 15.9 µM | GI50 (T-47D breast): 1.8 µM | TGI (T-47D breast): 5.94 µM | GI50 (HL-60(TB) leukemia): 2.07 µM | TGI (HL-60(TB) leukemia): 5.27 µM | GI50 (SW-620 colon): 1.64 µM | TGI (SW-620 colon): 2.99 µM | GI50 (ACHN renal): 3.31 µM | TGI (ACHN renal): 12.4 µM | GI50 (OVCAR-5 ovarian): 1.81 µM | TGI (OVCAR-5 ovarian): 4.75 µM | GI50 (BT-549 breast): 1.56 µM | TGI (BT-549 breast): 13.8 µM | GI50 (KM12 colon): 2.63 µM | TGI (KM12 colon): 10.5 µM | GI50 (U251 CNS): 2.03 µM | TGI (U251 CNS): 5.32 µM | GI50 (TK-10 renal): 4.78 µM | TGI (TK-10 renal): 17.5 µM | GI50 (HOP-62 NSCLC): 3.92 µM | TGI (HOP-62 NSCLC): 39.8 µM | GI50 (786-0 renal): 3.13 µM | TGI (786-0 renal): 21.1 µM | GI50 (SR leukemia): 1.66 µM | TGI (SR leukemia): 7.61 µM | GI50 (SF-539 CNS): 2.22 µM | TGI (SF-539 CNS): 10.9 µM | GI50 (SK-MEL-28 melanoma): 2.13 µM | TGI (SK-MEL-28 melanoma): 5.88 µM | GI50 (OVCAR-8 ovarian): 2.41 µM | TGI (OVCAR-8 ovarian): 6.02 µM | GI50 (SK-OV-3 ovarian): 12.3 µM | TGI (SK-OV-3 ovarian): 24.7 µM | GI50 (A498 renal): 11.3 µM | TGI (A498 renal): 23.4 µM | GI50 (UACC-257 melanoma): 2.06 µM | TGI (UACC-257 melanoma): 4.52 µM | GI50 (NCI-H460 lung): 3.21 µM | TGI (NCI-H460 lung): 14.1 µM | GI50 (HT29 colon): 3.4 µM | TGI (HT29 colon): 13.2 µM | GI50 (NCI-H226 lung): 16.5 µM | TGI (NCI-H226 lung): 33.3 µM | GI50 (SN12C renal): 1.75 µM | TGI (SN12C renal): 3.37 µM | GI50 (SK-MEL-5 melanoma): 2.32 µM | TGI (SK-MEL-5 melanoma): 7.52 µM | GI50 (A549 NSCLC): 12.6 µM | TGI (A549 NSCLC): 33.1 µM | GI50 (HCC-2998 colon): 5.78 µM | TGI (HCC-2998 colon): 19.7 µM | GI50 (MDA-MB-231 breast): 1.3 µM | TGI (MDA-MB-231 breast): 3.89 µM | GI50 (SF-268 CNS): 2.85 µM | TGI (SF-268 CNS): 12.9 µM | GI50 (K-562 leukemia): 1.87 µM | TGI (K-562 leukemia): 5.29 µM

COc1ccc(OC)c2c1C=C[C@H](C1(C)SCCS1)C2C(C)=O (some centres not stated)
TGI (DU-145 prostate): 97.9 µM | TGI (CCRF-CEM leukemia): > 100 µM | TGI (RPMI-8226 leukemia): 58.6 µM | TGI (HCT-15 colon): > 100 µM | TGI (NCI-H23 lung): 71.6 µM | TGI (HCT-116 colon): 65.3 µM | TGI (SNB-19 CNS): 81.1 µM | TGI (MOLT-4 leukemia): 60.6 µM | TGI (NCI-H522 lung): 41.5 µM | TGI (NCI/ADR-RES ovarian): > 100 µM | TGI (UO-31 renal): 59.7 µM | TGI (MALME-3M melanoma): 89.8 µM | TGI (OVCAR-3 ovarian): 61.5 µM | TGI (OVCAR-4 ovarian): > 100 µM | TGI (EKVX NSCLC): > 100 µM | TGI (PC-3 prostate): > 100 µM | TGI (UACC-62 melanoma): > 100 µM | TGI (IGROV1 ovarian): > 100 µM | TGI (T-47D breast): > 100 µM | TGI (CAKI-1 renal): 90 µM | TGI (HL-60(TB) leukemia): 41.3 µM | TGI (SW-620 colon): > 100 µM | TGI (ACHN renal): > 100 µM | TGI (OVCAR-5 ovarian): 65.6 µM | TGI (SF-295 CNS): 65.5 µM | TGI (KM12 colon): 99.5 µM | TGI (HS 578T breast): 45.6 µM | TGI (U251 CNS): 73.2 µM | TGI (TK-10 renal): > 100 µM | TGI (HOP-62 NSCLC): > 100 µM | TGI (786-0 renal): > 100 µM | TGI (M14 melanoma): > 100 µM | TGI (SR leukemia): 59.2 µM | TGI (RXF 393 renal): 92.3 µM | TGI (MDA-MB-435): > 100 µM | TGI (SF-539 CNS): 48.2 µM | TGI (SK-MEL-28 melanoma): > 100 µM | TGI (OVCAR-8 ovarian): > 100 µM | TGI (SK-OV-3 ovarian): 70.9 µM | TGI (A498 renal): 78.2 µM | TGI (UACC-257 melanoma): > 100 µM | TGI (NCI-H460 lung): 76.5 µM | TGI (HT29 colon): 33.8 µM | TGI (NCI-H226 lung): 63.4 µM | TGI (SN12C renal): > 100 µM | TGI (MCF7 breast): > 100 µM | TGI (HOP-92 NSCLC): > 100 µM | TGI (SK-MEL-5 melanoma): 47.1 µM | TGI (A549 NSCLC): > 100 µM | TGI (HCC-2998 colon): > 100 µM | TGI (LOX IMVI melanoma): 81.8 µM | TGI (MDA-MB-231 breast): > 100 µM | TGI (SF-268 CNS): > 100 µM | TGI (K-562 leukemia): > 100 µM

— PubChem BioAssay (NCI)
